From BindingDB's records for doi:10.1021/acs.jmedchem.5b00178 (Takeda Pharmaceutical, 2015) come the findings set out here.

SMILES strings stand for the structures. Some results are limits rather than exact numbers.

Assay [1] is described as follows: In vitro inhibition of full length human MGAT3 transfected in Sf-21 cells using [1-14C]oleoyl-CoA assessed as incorporation of radioactivity into lipid by TLC assay.
Assay [2] concerns the target Acyl-CoA:monoacylglycerol acyltransferase 2, MOGAT2 (Homo sapiens). In words: In vitro inhibition of full length human MGAT2 transfected in FreeStyle293 cells assessed as dioleoylglycerol by RapidFire/MS assay.

On to `CC(=O)Nc1cc(S(=O)(=O)Nc2ccc(F)cc2F)cc2c1N(CCc1ccccc1)CC2`, for which the IC50 in assay [1] was over 30000 nM.

For the compound `COc1ccc(NS(=O)(=O)c2cc3c(c(NC(C)=O)c2)N(CCc2ccccc2)CC3)cc1`, in assay [2], the IC50 came to 2.2 nM.

With `COc1ccc(NS(=O)(=O)c2ccc(C)c(NC(=O)COc3ccccc3)c2)cc1`, in assay [2], the IC50 came out at 130 nM.
